# Test results reported in ChEMBL document CHEMBL5113454, “Design, synthesis, and bioactivity study on Lissodendrins B derivatives as PARP1 inhibitor” (Bioorg Med Chem, 2022).
# Calls of active or inactive are those of the source. The rule behind the calls is not given here.
# Tests used:
# HCC1937 [1] = test: Cell cycle arrest in BRCA1-deficient human HCC1937 cells assessed as accumulation at G2 phase at 15 uM measured after 24 hrs by propidium iodide (PI) based FACS analysis (reference value: 13.5%); format: functional
# MDA-MB-436 [2] = test: Cell cycle arrest in BRCA1-deficient human MDA-MB-436 cells assessed as accumulation at S phase at 15 uM measured after 24 hrs by propidium iodide (PI) based FACS analysis (reference value: 27.4%); format: functional
# HCC1937 [3] = test: Cell cycle arrest in BRCA1-deficient human HCC1937 cells assessed as accumulation at S phase at 0.1 uM measured after 24 hrs by propidium iodide (PI) based FACS analysis (reference value: 26%); format: functional
# HCC1937 [4] = test: Cell cycle arrest in BRCA1-deficient human HCC1937 cells assessed as accumulation at S phase at 5 uM measured after 24 hrs by propidium iodide (PI) based FACS analysis (reference value: 26%); format: functional
# MDA-MB-436 [5] = test: Cell cycle arrest in BRCA1-deficient human MDA-MB-436 cells assessed as accumulation at G2 phase at 15 uM measured after 24 hrs by propidium iodide (PI) based FACS analysis (reference value: 17.6%); format: functional
# HCC1937 [6] = test: Cell cycle arrest in BRCA1-deficient human HCC1937 cells assessed as accumulation at G1 phase at 1 uM measured after 24 hrs by propidium iodide (PI) based FACS analysis (reference value: 31.6%); format: functional
# MDA-MB-436 [7] = test: Cell cycle arrest in BRCA1-deficient human MDA-MB-436 cells assessed as accumulation at S phase at 5 uM measured after 24 hrs by propidium iodide (PI) based FACS analysis (reference value: 27.4%); format: functional
# HCC1937 [8] = test: Cell cycle arrest in BRCA1-deficient human HCC1937 cells assessed as accumulation at G2 phase at 5 uM measured after 24 hrs by propidium iodide (PI) based FACS analysis (reference value: 13.5%); format: functional
# HCC1937 [9] = test: Induction of apoptosis in BRCA1-deficient human HCC1937 cells at 0.1 to 15 uM measured after 24 hrs by Annexin V/propidium iodide (PI) based FACS analysis; format: functional, cell-based; conditions: dose 0.1-15 µM
# HCC1937 [10] = test: Antiproliferative activity against human HCC1937 cells after 7 days by resazurin reduction assay; conditions: HCC1937, 168 h
# MDA-MB-436 [11] = test: Cell cycle arrest in BRCA1-deficient human MDA-MB-436 cells assessed as accumulation at G1 phase at 0.1 uM measured after 24 hrs by propidium iodide (PI) based FACS analysis (reference value: 26.7%); format: functional
# MDA-MB-436 [12] = test: Cell cycle arrest in BRCA1-deficient human MDA-MB-436 cells assessed as accumulation at G2 phase at 0.1 uM measured after 24 hrs by propidium iodide (PI) based FACS analysis (reference value: 17.6%); format: functional
# HCC1937 [13] = test: Cell cycle arrest in BRCA1-deficient human HCC1937 cells assessed as accumulation at G2 phase at 1 uM measured after 24 hrs by propidium iodide (PI) based FACS analysis (reference value: 13.5%); format: functional
# MDA-MB-436 [14] = test: Cell cycle arrest in BRCA1-deficient human MDA-MB-436 cells assessed as accumulation at G2 phase at 5 uM measured after 24 hrs by propidium iodide (PI) based FACS analysis (reference value: 17.6%); format: functional
# HCC1937 [15] = test: Cell cycle arrest in BRCA1-deficient human HCC1937 cells assessed as accumulation at G1 phase at 15 uM measured after 24 hrs by propidium iodide (PI) based FACS analysis (reference value: 31.6%); format: functional
# MDA-MB-436 [16] = test: Cell cycle arrest in BRCA1-deficient human MDA-MB-436 cells assessed as accumulation at G2 phase at 1 uM measured after 24 hrs by propidium iodide (PI) based FACS analysis (reference value: 17.6%); format: functional
# MDA-MB-436 [17] = test: Cell cycle arrest in BRCA1-deficient human MDA-MB-436 cells assessed as accumulation at G1 phase at 1 uM measured after 24 hrs by propidium iodide (PI) based FACS analysis (reference value: 26.7%); format: functional
# MCF7 = test: Induction of DNA damage in human MCF7 cells expressing BRCA1 at 0.1 to 15 uM assessed as increase in accumulation of DNA double-strand breaks measuring gamma-H2AX levels by Western blot analysis; format: functional, cell-based; conditions: dose 0.1-15 µM
# HCC1937 [18] = test: Cell cycle arrest in BRCA1-deficient human HCC1937 cells assessed as accumulation at S phase at 15 uM measured after 24 hrs by propidium iodide (PI) based FACS analysis (reference value: 26%); format: functional
# HCC1937 [19] = test: Cell cycle arrest in BRCA1-deficient human HCC1937 cells assessed as accumulation at G1 phase at 0.1 uM measured after 24 hrs by propidium iodide (PI) based FACS analysis (reference value: 31.6%); format: functional
# MDA-MB-436 [20] = test: Cell cycle arrest in BRCA1-deficient human MDA-MB-436 cells assessed as accumulation at S phase at 0.1 uM measured after 24 hrs by propidium iodide (PI) based FACS analysis (reference value: 27.4%); format: functional
# MDA-MB-436 [21] = test: Induction of DNA damage in BRCA1-deficient human MDA-MB-436 cells at 0.1 to 15 uM assessed as increase in accumulation of DNA double-strand breaks measuring gamma-H2AX levels by Western blot analysis; format: functional, cell-based; conditions: dose 0.1-15 µM
# MDA-MB-436 [22] = test: Antiproliferative activity against human MDA-MB-436 cells after 7 days by resazurin reduction assay; conditions: MDA-MB-436, 168 h
# MDA-MB-436 [23] = test: Cell cycle arrest in BRCA1-deficient human MDA-MB-436 cells assessed as accumulation at S phase at 1 uM measured after 24 hrs by propidium iodide (PI) based FACS analysis (reference value: 27.4%); format: functional
# HCC1937 [24] = test: Cell cycle arrest in BRCA1-deficient human HCC1937 cells assessed as accumulation at G1 phase at 5 uM measured after 24 hrs by propidium iodide (PI) based FACS analysis (reference value: 31.6%); format: functional
# MDA-MB-436 [25] = test: Cell cycle arrest in BRCA1-deficient human MDA-MB-436 cells assessed as accumulation at G1 phase at 15 uM measured after 24 hrs by propidium iodide (PI) based FACS analysis (reference value: 26.7%); format: functional
# MDA-MB-436 [26] = test: Induction of apoptosis in BRCA1-deficient human MDA-MB-436 cells at 0.1 to 15 uM measured after 24 hrs by Annexin V/propidium iodide (PI) based FACS analysis; format: functional, cell-based; conditions: dose 0.1-15 µM
# MDA-MB-436 [27] = test: Cell cycle arrest in BRCA1-deficient human MDA-MB-436 cells assessed as accumulation at G1 phase at 5 uM measured after 24 hrs by propidium iodide (PI) based FACS analysis (reference value: 26.7%); format: functional
# HCC1937 [28] = test: Cell cycle arrest in BRCA1-deficient human HCC1937 cells assessed as accumulation at G2 phase at 0.1 uM measured after 24 hrs by propidium iodide (PI) based FACS analysis (reference value: 13.5%); format: functional
# HCC1937 [29] = test: Cell cycle arrest in BRCA1-deficient human HCC1937 cells assessed as accumulation at S phase at 1 uM measured after 24 hrs by propidium iodide (PI) based FACS analysis (reference value: 26%); format: functional
compound,measurement,setting,value
COc1ccc(C(=O)C(=O)c2c(-c3ccc(OC)cc3)nc(NC(=O)CN3CCc4cc(OC)c(OC)cc4C3)n2C)cc1,Activity,HCC1937 [1],45.9%
same,Activity,MDA-MB-436 [2],33.3%
same,Activity,HCC1937 [3],19.9%
same,Activity,HCC1937 [4],23.2%
same,Activity,MDA-MB-436 [5],28.5%
same,Activity,HCC1937 [6],32.8%
same,Activity,MDA-MB-436 [7],29.1%
same,Activity,HCC1937 [8],22.4%
same,Activity,HCC1937 [9],Active
same,IC50,HCC1937 [10],17.8 µM
same,Activity,MDA-MB-436 [11],23.3%
same,Activity,MDA-MB-436 [12],17%
same,Activity,HCC1937 [13],21.6%
same,Activity,MDA-MB-436 [14],32.8%
same,Activity,HCC1937 [15],7%
same,Activity,MDA-MB-436 [16],25.4%
same,Activity,MDA-MB-436 [17],25.1%
same,Activity,MCF7,Active
same,Activity,HCC1937 [18],17.8%
same,Activity,HCC1937 [19],36.6%
same,Activity,MDA-MB-436 [20],30.2%
same,Activity,MDA-MB-436 [21],Active
same,IC50,MDA-MB-436 [22],12.6 µM
same,Activity,MDA-MB-436 [23],21.5%
same,Activity,HCC1937 [24],24.7%
same,Activity,MDA-MB-436 [25],9.85%
same,Activity,MDA-MB-436 [26],Active
same,Activity,MDA-MB-436 [27],10.4%
same,Activity,HCC1937 [28],18.3%
same,Activity,HCC1937 [29],18.7%
